Patent US20240081377A1, “USING ORGANOIDS AND/OR SPHEROIDS TO CULTIVATE MEAT” (Orbillion Bio, Inc., priority 2020, published 2024)

How the values were obtained:
A549 spheroids = experiment: On-chip drug toxicity screening of A549 spheroids (dye exclusion assay, Hoechst / ethidium homodimer-1); assay type: cell-based, human; details: A549 spheroids of all sizes (300-1000 μm), different concentrations, 24 hours
Method: A549 cells were seeded at a concentration of 1×10^6 cells per ml and cultivated for three days under standard cell culture conditions under bi-directional flow (e.g. using a rocking device). Stock solutions of 10 mM cisplatin (Sigma-Aldrich, Austria) in DMSO and 10 mM doxorubicin (Sigma-Aldrich, Austria) in PBS were prepared. Doxorubicin and cisplatin were dissolved in cell culture medium to yield concentrations of 0.5, 1, 5, 10, 25, 50 and 500 μM for the treatment of A549 spheroids. Cell culture medium within the channels of the devices was replaced with drug containing medium and incubated for 24 hours prior to cell death analyses. One channel on a separate device was used as an untreated control. […] Raw fluorescence signals were processed and dose-response curves were generated by Sigmoidal-4PL non-linear regression analysis.
Live A549 cell spheroids of different sizes (300 μm, 500 μm, 700 μm, 900 μm, 1000 μm in diameter) were stained with Hoechst; blue and Ethidium homodimer-1; red and treated with different concentrations (100 μM, 10 μM and 1 μM) of CIS, DOX, and CIS:DOX to screen drug toxicity for up to 24 hours following drug treatment. […] Viability of live human A549 cell spheroids of different sizes (measured as a % of the untreated control) was calculated as a function of chemotherapy drug treatment concentration (CIS, DOX, and CIS:DOX). […]

spheroids = experiment: Spheroid expansion (spheroid diameter) following recombinant growth factor treatment; assay type: cell-based; details: wells 300 μm in diameter, 3 days after treatment
Source text: (§1) FIG. 20A to FIG. 20B illustrates spheroid diameter of cells cultured in wells measuring 900 μm in diameter for 12 days following growth factor treatment with fibroblast growth factor (FGF), hepatocyte growth factor (HGF), and insulin-like growth factor (IGF). More specifically, FIG. 20A depicts spheroid diameter in and FIG. 20B depicts spheroid diameter as a percentage of size increase as compared to control.
as §1, with “21A” for “20A”, “21B depicts” for “20B illustrates”, “300” for “900”, “21B” for “20B”

| Compound | viability of A549 cell spheroids (measured as a % of the untreated control) (A549 spheroids) | spheroid diameter, size increase as compared to control (spheroids) |
| --- | --- | --- |
| COc1cccc2c1C(=O)c1c(O)c3c(c(O)c1C2=O)C[C@@](O)(C(=O)CO)C[C@@H]3O[C@H]1C[C@H](N)[C@H](O)[C@H](C)O1 [DOX, Doxorubicin] | decreased sharply |  |
| HGF: recombinant hepatocyte growth factor |  | largest difference |
